Measured values taken from paper PMC6892255, “Identification of a potent small-molecule inhibitor of bacterial DNA repair that potentiates quinolone antibiotic activity in methicillin-resistant Staphylococcus aureus^” (Bioorganic & Medicinal Chemistry, 2019).
Entries after “also recorded” stand apart in the source; their conditions may differ.

Columns and labels:
E. coli DNA gyrase = molecular target: T1, E. coli DNA gyrase (Escherichia coli, UniProt P0AES4+P0AES6); assay: DNA gyrase supercoiling assay (pBR322); type: biochemical; details: at 12.5 μM (compounds); gel and densitometry
T1 construct: purchased Inspiralis
Experimental: DNA gyrase produces supercoiled DNA from relaxed and open-coiled DNA, which can be separated via agarose gel electrophoresis. […]
(§1) E. coli DNA gyrase supercoiling assay (Inspiralis) was performed according to the manufacturer’s instructions, ensuring a constant concentration of 1% (v/v) DMSO. Samples were separated on a 1% (w/v) agarose gel prepared with Tris/Borate/EDTA (TBE) buffer (1 M Tris-borate, 20 mM EDTA, pH 8.0). Electrophoresis was performed at 100 V until the bromophenol blue dye had run >6 cm to ensure resolution of relaxed and supercoiled DNA.
(§2) The gel was stained with SYBR Safe DNA gel stain (Invitrogen, 1:10,000 dilution in TBE) for 30 min, and visualized on a Syngene Gel Doc system. Band intensity was quantified using ImageJ software and the fraction of supercoiled plasmid was determined as the ratio of the density of the supercoiled band to the total density. Values were background corrected against the no-gyrase control and normalized to DMSO control for dose-response analysis.

E. coli topoisomerase IV = molecular target: T2, E. coli topoisomerase IV (Escherichia coli, UniProt P0AFI2+P20083); assay: Topoisomerase IV supercoiling relaxation assay (pQE80L); type: biochemical; details: at 12.5 µM (compounds)
T2 construct: purchased Inspiralis
Experimental: 2.1. Biological and biochemical methods […]
as §1, §2
E. coli topoisomerase IV supercoiling relaxation assay (Inspiralis) was performed according to the manufacturer’s instructions, ensuring a constant concentration of 1% (v/v) DMSO.
Supercoiled pQE80L was prepared via plasmid purification and used as the substrate for the reaction. Reactions were analyzed as described for DNA gyrase assays. […]

[1] = system: SOS response in JE2 cells; assay: SOS reporter assay (GFP under control of the recA promoter); type: cell-based, Staphylococcus aureus; details: for SOS response (normalized GFP fluorescence/cell): JE2 recA-GFP reporter, SOS activated with CFX (10 µM), titration of compound
Source text: A SOS reporter system was generated by transformation of JE2 cells with a plasmid containing GFP under control of the recA promoter. Activation of the SOS response in these cells results in expression of GFP which can be monitored by fluorescence intensity. […] IMP-1700 (10) was coupled with N-Boc-ethylenediamine to afford amide 19, followed by removal of the Boc group in 4 M HCl/dioxane and purification using strong cation exchange resin. The resulting free amine 20 was coupled to N-hydroxysuccinimide (NHS)-activated Sepharose resin at 4 °C overnight (Figure 2C), and the remaining NHS sites quenched in Tris buffer. SoluBL21 competent E. coli were transformed with pET28b^+ containing StrepII-tagged AddA and hexahistidine-tagged AddB, and expression induced overnight at 16 °C. […] Beads were washed three times with lysis buffer and bound protein eluted with SDS-PAGE sample buffer, followed by PAGE separation. […]
JE2 transformed with SOS-inducible pCN34 PrecA-gfp reporter plasmid expressing GFP under the control of the recA promoter were grown to late stationary phase at 37 °C in MHB containing kanamycin (90 μg/mL). Stationary phase JE2 culture (1 mL) was centrifuged (17,000 × g, 2 min), the supernatant removed and cells resuspended in assay media (12.5 µM […]
concentration was maintained >12.5 µM and DMSO concentration maintained at 1.5% (v/v).
JE2 culture (20 uL) was added to inhibitor solutions (180 µL) to a final cell density of 4 x 10^7 CFU/mL and samples incubated in a M200-PRO microplate reader (Tecan) at 37 °C with 700 rpm agitation for 17 h. GFP fluorescence intensity and OD600 were measured at 15 min intervals. Measurements were background corrected against no-inocula control and normalized to no-test inhibitor control at mid-exponential growth phase (4.5 h) for dose-response analysis. […]

[2] = system: methicillin-resistant S. aureus (MRSA, USA300 JE2); assay: Ciprofloxacin (CFX) potentiation in MRSA growth inhibition assay; type: cell-based, Staphylococcus aureus; details: compared to IMP-1700 (10)
Experimental: 2.1. Biological and biochemical methods
Bacterial strains and culture conditions
Strains utilized in the present study are detailed in Table S1. All strains used were cultivated on Mueller Hinton Agar (MHA) and grown to stationary-phase in Mueller Hinton Broth (MHB) at 37 °C for 16 h, with shaking at 180 r.p.m.
Minimum inhibitory concentration (MIC) assays
MIC assays were performed in 96 well plates and MICs were determined in accordance with the broth microdilution protocol.4 Strains grown to stationary-phase in MHB were adjusted to 5 x 10^5 colony-forming units (CFU)/mL in fresh MHB (100 µL/well) supplemented with DMSO to ensure a constant concentration of 0.5% (v/v) DMSO across all experiments. Where […]
or H2O2 (200 μM). Test compounds were prepared as two-fold serial dilutions. Cells were […]
as the lowest concentration with no visible bacterial growth, and the optical density at 600 nm (OD600) was recorded. OD600 measurements were background corrected against no-inocula control and normalized to DMSO control for dose-response analysis. The EC50 value mean and SEM were calculated from individual EC50 values from three biological replicates. […]

[3] = system: AddAB (StrepII-AddA and His6-AddB); assay: Recombinant AddAB pulldown with compound-functionalized Sepharose; type: binding; details: E. coli lysate co-expressing StrepII-AddA and His6-AddB, Western blot
Source text: A SOS reporter system was generated by transformation of JE2 cells with a plasmid containing GFP under control of the recA promoter. Activation of the SOS response in these cells results in expression of GFP which can be monitored by fluorescence intensity. […] This decrease is indicative of inhibition of the SOS response during cell death, and consistent with the proposed inhibition of AddAB-mediated DNA repair pathways. Finally, to provide additional evidence that inhibition of the bacterial DNA repair pathway by IMP-1700 (10) occurred through inhibition of AddAB, a target pulldown was conducted. IMP-1700 (10) was coupled with N-Boc-ethylenediamine to afford amide 19, followed by removal of the Boc group in 4 M HCl/dioxane and purification using strong cation exchange resin. The resulting free amine 20 was coupled to N-hydroxysuccinimide (NHS)-activated Sepharose resin at 4 °C overnight (Figure 2C), and the remaining NHS sites quenched in Tris buffer. SoluBL21 competent E. coli were transformed with pET28b^+ containing StrepII-tagged AddA and hexahistidine-tagged AddB, and expression induced overnight at 16 °C. Cells were lysed via sonication and the total lysate incubated with IMP-1700 (10)-functionalized or control Sepharose beads which had been treated with DMSO then Tris-quenched. Beads were washed three times with lysis buffer and bound protein eluted with SDS-PAGE sample buffer, followed by PAGE separation. […]
agar (LA) supplemented with kanamycin (50 μg/mL). Liquid cultures were grown at 37 °C with shaking at 180 r.p.m until an OD600 of 0.5 was reached, at which point cultures were cooled to 16 °C. Protein expression was induced by addition of isopropyl β-D-thiogalactoside (1 mM), followed by incubation for 20 h at 16 °C with shaking. Cells were collected by centrifugation (4,000 × g, 5 min) and stored at -20 °C.
Cells were re-suspended in lysis buffer (50 mM Tris-HCl, 150 mM NaCl, pH 7.5) and lysed on ice by sonication (2 min, 5 s on-off cycle, 40% amplitude) using a Vibra-cell sonicator (Sonics). […]

T2 sequence (P0AFI2 whole entry): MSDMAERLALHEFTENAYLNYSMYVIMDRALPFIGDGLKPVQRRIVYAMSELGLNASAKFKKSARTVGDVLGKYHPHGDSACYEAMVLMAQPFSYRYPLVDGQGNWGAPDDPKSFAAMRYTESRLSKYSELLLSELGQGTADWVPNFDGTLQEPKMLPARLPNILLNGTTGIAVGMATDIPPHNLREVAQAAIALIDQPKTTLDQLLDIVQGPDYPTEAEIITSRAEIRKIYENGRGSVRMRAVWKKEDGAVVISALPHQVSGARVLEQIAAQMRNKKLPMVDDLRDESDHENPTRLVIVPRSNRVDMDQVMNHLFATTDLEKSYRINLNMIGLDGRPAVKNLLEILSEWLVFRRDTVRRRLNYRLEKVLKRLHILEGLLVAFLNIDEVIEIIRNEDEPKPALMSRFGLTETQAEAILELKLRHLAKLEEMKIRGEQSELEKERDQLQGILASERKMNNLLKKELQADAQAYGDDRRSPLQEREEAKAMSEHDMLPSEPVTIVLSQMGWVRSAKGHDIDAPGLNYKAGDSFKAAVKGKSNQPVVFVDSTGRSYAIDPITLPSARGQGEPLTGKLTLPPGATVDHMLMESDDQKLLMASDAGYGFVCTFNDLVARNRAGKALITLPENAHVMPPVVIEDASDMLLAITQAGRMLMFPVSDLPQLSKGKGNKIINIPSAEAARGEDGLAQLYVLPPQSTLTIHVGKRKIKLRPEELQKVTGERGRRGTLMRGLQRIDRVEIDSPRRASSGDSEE
T2 sequence (P20083 whole entry): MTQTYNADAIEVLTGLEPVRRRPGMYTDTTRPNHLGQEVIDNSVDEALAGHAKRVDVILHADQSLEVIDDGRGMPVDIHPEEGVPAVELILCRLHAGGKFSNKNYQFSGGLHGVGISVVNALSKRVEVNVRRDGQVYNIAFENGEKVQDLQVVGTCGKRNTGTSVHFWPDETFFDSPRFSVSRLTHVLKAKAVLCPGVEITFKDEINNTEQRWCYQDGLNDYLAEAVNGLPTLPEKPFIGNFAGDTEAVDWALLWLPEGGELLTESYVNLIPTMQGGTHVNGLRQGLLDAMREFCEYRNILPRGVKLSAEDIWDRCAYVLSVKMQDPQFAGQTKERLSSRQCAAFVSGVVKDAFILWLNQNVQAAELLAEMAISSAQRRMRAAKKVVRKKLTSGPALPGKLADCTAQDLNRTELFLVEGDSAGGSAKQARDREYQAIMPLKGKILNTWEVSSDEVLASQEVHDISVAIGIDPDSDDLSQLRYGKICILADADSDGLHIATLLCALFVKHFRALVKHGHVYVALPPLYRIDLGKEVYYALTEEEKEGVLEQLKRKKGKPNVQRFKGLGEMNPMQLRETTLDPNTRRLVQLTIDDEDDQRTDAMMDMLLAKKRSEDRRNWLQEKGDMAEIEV
T1 sequence (P0AES4 whole entry, one chain of several): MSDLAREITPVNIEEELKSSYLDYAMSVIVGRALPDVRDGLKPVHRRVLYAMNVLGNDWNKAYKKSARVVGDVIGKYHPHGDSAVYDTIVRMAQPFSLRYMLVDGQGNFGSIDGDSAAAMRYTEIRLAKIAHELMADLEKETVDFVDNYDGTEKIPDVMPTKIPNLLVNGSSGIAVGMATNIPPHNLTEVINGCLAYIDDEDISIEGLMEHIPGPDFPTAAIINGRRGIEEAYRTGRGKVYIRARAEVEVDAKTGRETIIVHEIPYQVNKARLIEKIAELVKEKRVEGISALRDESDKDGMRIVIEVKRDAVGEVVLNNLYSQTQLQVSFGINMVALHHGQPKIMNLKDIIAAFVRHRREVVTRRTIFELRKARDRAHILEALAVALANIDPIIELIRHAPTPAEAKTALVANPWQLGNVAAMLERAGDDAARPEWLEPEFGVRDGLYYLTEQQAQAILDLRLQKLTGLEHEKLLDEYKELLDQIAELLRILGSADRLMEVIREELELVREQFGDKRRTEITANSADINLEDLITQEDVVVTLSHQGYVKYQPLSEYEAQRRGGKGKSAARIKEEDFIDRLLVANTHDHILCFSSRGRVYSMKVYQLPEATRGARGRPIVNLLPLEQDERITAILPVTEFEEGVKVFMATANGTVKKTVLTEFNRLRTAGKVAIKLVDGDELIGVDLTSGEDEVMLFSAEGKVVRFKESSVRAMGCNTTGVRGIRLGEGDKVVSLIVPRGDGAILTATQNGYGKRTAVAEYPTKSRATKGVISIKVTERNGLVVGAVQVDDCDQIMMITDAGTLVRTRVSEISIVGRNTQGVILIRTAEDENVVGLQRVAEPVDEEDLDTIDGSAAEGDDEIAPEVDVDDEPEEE

| Compound | Activity against DNA gyrase (E. coli DNA gyrase) | Inhibition of topoisomerase IV (E. coli topoisomerase IV) | Effect on cell number (OD600) in SOS reporter assay ([1]; JE2 recA-GFP reporter with CFX (10 µM)) | SOS response (normalized GFP fluorescence/cell) [1] | fold weaker potentiation of CFX in MRSA growth assays [2] [fold] | Pulldown of AddA and AddB by compound-functionalized Sepharose [3] |
| --- | --- | --- | --- | --- | --- | --- |
| O=C(O)c1cn(C2CC2)c2cc(N3CCNCC3)c(F)cc2c1=O [CFX, ciprofloxacin, reference compound] | inhibited | inhibited | decrease in cell number at low micromolar concentrations | increase in normalized GFP fluorescence/cell; also recorded: SOS activation increased | – | – |
| O=C(O)c1cn(C2CC2)c2cc(N3CCN(C(=O)Nc4ccccc4)CC3)c(F)cc2c1=O [Compound 21] | – | – | – | did not inhibit the SOS response; also recorded: SOS activation increased | ~100 | no interaction; also recorded: did not; also recorded: does not pulldown |
